Results taken from US20020107231A1, “Remedy for autoimmune diseases” (priority 1992, published 2002).
Where a name gives a salt, the structure may show the parent alone.

Tests used:
Type in all cases: in vivo, mouse
MRL/Mp-lpr/lpr mice [1] = assay: Suppression of glomerulonephritis (Mac 2 number per glomerulus) by concomitant use of toremifene citrate with glucocorticoid; settings: for change in Mac 2 number as compared with the control (in words): all dose groups, 9 weeks, t-test
Description: Twelve-week old female MRL/Mp-lpr/lpr mice were used in the examination. Thirty miligrams per kg or 15 mg/kg of toremifene citrate (TOR) was orally administered to each mouse twice a day for 9 weeks from the 12th week to the 21st week. A glucocorticoid (prednisolone), 8, 4 and 2 mg/kg/day, were subcutaneously administered to mice once a day as a positive control drug. The concomitant use of tremifene with the glucocorticoid was also carried out according to the same regimen as above. The kidney was taken out from each mouse the day after the completion of the whole administration period and fixed in a PLP fixative. Frozen sections were made from the fixed kidney and used for an immunostaining with an anti-Mac-2 monoclonal antibody (Hybritec Inc., San Diego, USA). The number of Mac-2 positive cells (activated macrophages) invading each of 10 to 20 glomeruli of the kidney, which is hereinafter referred to as Mac 2 number, was counted under a microscopy to determine an average Mac 2 number per glomerulus. The degree of severeness of glomerulonephritis was estimated in terms of the average Mac 2 number (n=13 for each group).

MRL/Mp-lpr/lpr mice [2] = assay: Inhibition of sialadenitis, angitis and arthritis of MRL/Mp-lpr/lpr mice (histopathology); settings: 100 mg/kg orally once a day for 13 weeks
Description: (§1) Eight-week old female MRL/Mp-lpr/lpr mice (Clea Japan, Inc.) were used in this examination. Toremifene citrate (JP-B-4 19973) was suspended in carboxymethylcellulose to prepare a 0.5% suspension. This compound (100 mg/kg) was orally administered to each mouse once a day for 13 weeks.
The salivary gland, renal blood vessel and knee joint of each mouse in the control group and the toremifene citrate treated group were histopathologically examined.
1) The salivary gland, kidney and knee joint were fixed in 10% buffered formalin, and then paraffin sections thereof were prepared by an ordinary method to prepare HE and PAS stained specimens. The extent of the disorder was scored and classified into the following groups: […]

[3] = test system: NZB×NZW mice (B/W F1 mice); assay: Comparison of survival time of NZB×NZW F1 mice; settings: for animals alive after one year / animals died at/before the age of 40 weeks / animals still alive after almost two years' time: female mice; for animals alive after one year: female control 20%; for animals died at/before the age of 40 weeks: female control 50% died
Description: NZB×NZW mice (B/W F1 mice) were used as a pathological model of autoimmune diseases (systemic lupus erythematodes). Effect of toremifene citrate on the survival time of the animals was investigated.
F1-hybrids of NZB (female) and NZW (male) mice (B/W F1 mice): Imported from Bomholtgaard, Denmark at the age of five weeks.
Toremifene citrate 30 mg/kg/day: administration 70 mg/kg in polyethylene glycol solution 3 times a week per os to female NZB×NZW F1 mice
Toremifene citrate 3 mg/kg/day: administration 7 mg/kg in polyethylene glycol solution 3 times a week per os to female NZB×NZW F1 mice
All but two female control animals have died during the almost two years' follow-up time. Fifty percents of the animals in this group died before/at the age of 40 weeks, and 20% (4/20) were alive after one year.

MRL/Mp-lpr/lpr mice [4] = assay: Suppression of renal disorder (glomerulonephritis score, BUN) of MRL/Mp-lpr/lpr mice; settings: 100 mg/kg orally once a day for 13 weeks
Description: as §1
An autopsy was performed on the mice of the control group and the toremifene citrate treated group after the completion of the administration to examine their kidneys pathohistologically. The blood urea nitrogen (BUN) of the serum in each group was examined to confirm changes in the renal function.
1) The kidney was fixed in 10% buffered formalin, and then paraffin sections thereof were prepared by an ordinary method to prepare HE and PAS stained specimens. The extent of the disorder of the renal glomeruli was scored and classified into the following groups:
2) The BUN was determined with a Fuji Dry Chem Analyzer.

MRL/Mp-lpr/lpr mice [5] = assay: Inhibition of swelling of spleen and lymph node of MRL/Mp-lpr/lpr mice; settings: 100 mg/kg orally once a day for 13 weeks
Description: as §1

[6] = 3 mg/kg/day (7 mg/kg 3 times a week per os)
[7] = 30 mg/kg/day (70 mg/kg 3 times a week per os)

C[C@]12C=CC(=O)C=C1CC[C@@H]1[C@@H]2[C@@H](O)C[C@@]2(C)[C@H]1CC[C@]2(O)C(=O)CO [Prednisolone, prednisolone]
change in Mac 2 number as compared with the control (in words) (MRL/Mp-lpr/lpr mice [1]): did not exhibit any significant decrease in Mac 2 number
Mac 2 number (MRL/Mp-lpr/lpr mice [1]; prednisolone 2 mg/kg subcutaneously once a day for 9 weeks, first series, control 7.5 ± 1.5): 9.4 ± 1.0
Mac 2 number (MRL/Mp-lpr/lpr mice [1]; prednisolone 2 mg/kg subcutaneously once a day for 9 weeks, second series, control 11.3 ± 1.2): 7.7 ± 1.0
Mac 2 number (MRL/Mp-lpr/lpr mice [1]; prednisolone 4 mg/kg subcutaneously once a day for 9 weeks, first series, control 7.5 ± 1.5): 7.9 ± 0.7
Mac 2 number (MRL/Mp-lpr/lpr mice [1]; prednisolone 4 mg/kg subcutaneously once a day for 9 weeks, second series, control 11.3 ± 1.2): 9.1 ± 1.4
Mac 2 number (MRL/Mp-lpr/lpr mice [1]; prednisolone 8 mg/kg subcutaneously once a day for 9 weeks, first series, control 7.5 ± 1.5): 5.8 ± 0.8

CN(C)CCOc1ccc(/C(=C(/CCCl)c2ccccc2)c2ccccc2)cc1 [Toremifene citrate, 2[4-(Z)-4-Chloro-1,2-Diphenyl-1-Butenyl]Phenoxy-N,N-Dimethylethylamine Citrate]
Mac 2 number (MRL/Mp-lpr/lpr mice [1]; TOR 15 mg/kg orally twice a day for 9 weeks, first series, control 7.5 ± 1.5): 6.5 ± 1.2
Mac 2 number (MRL/Mp-lpr/lpr mice [1]; TOR 30 mg/kg orally twice a day for 9 weeks, first series, control 7.5 ± 1.5): 6.2 ± 1.0
change in Mac 2 number as compared with the control (in words) (MRL/Mp-lpr/lpr mice [1]): did not exhibit any significant decrease in Mac 2 number
attack by sialadenitis, angitis and arthritis (in words) (MRL/Mp-lpr/lpr mice [2]): prevented the mice from being attacked by sialadenitis, angitis and arthritis
Arthritis (score 0-3) (MRL/Mp-lpr/lpr mice [2]; knee joint, mean ± standard deviation, control 1.6 ± 0.9): 0.4 ± 0.5
Angitis (score 0-3) (MRL/Mp-lpr/lpr mice [2]; renal blood vessel, mean ± standard deviation, control 2.1 ± 0.7): 0.9 ± 0.8
Sialadenitis (score 0-3) (MRL/Mp-lpr/lpr mice [2]; salivary gland, mean ± standard deviation, control 2.2 ± 0.6): 0.9 ± 0.8
animals alive after one year [3, 6]: 80%
animals died at/before the age of 40 weeks [3, 6]: 1/20
animals alive after one year [3, 7]: 85%
animals died at/before the age of 40 weeks [3, 7]: 3/20
life span compared to the female control animals (in words) ([3]; both treatment groups (3 and 30 mg/kg/day)): lengthened clearly
animals still alive after almost two years' time ([3]; higher dosage group (30 mg/kg/day)): 10%
animals still alive after almost two years' time ([3]; lower dosage group (3 mg/kg/day)): 25%
glomerulonephritis (in words) (MRL/Mp-lpr/lpr mice [4]): ameliorated the glomerulonephritis
renal function (in words) (MRL/Mp-lpr/lpr mice [4]): healed the renal function
Glomerulonephritis (score 0-3, average of 25 renal glomeruli) (MRL/Mp-lpr/lpr mice [4]; mean ± standard deviation, control 2.4 ± 0.7): 1.2 ± 0.7
BUN (MRL/Mp-lpr/lpr mice [4]; serum, mean ± standard deviation, control 43.1 ± 23.9): 24.6 ± 4.9 mg/dL
swelling of the spleen and lymph node (in words) (MRL/Mp-lpr/lpr mice [5]): inhibited the swelling of the spleen and lymph node
swelling of spleen ([formula]) (MRL/Mp-lpr/lpr mice [5]; 8-week old female mice, mean ± standard deviation, control 2.34 ± 0.74): 1.38 ± 1.06
swelling of lymph node ([formula]) (MRL/Mp-lpr/lpr mice [5]; 8-week old female mice, mean ± standard deviation, control 6.77 ± 1.70): 3.11 ± 1.43
